# Laboratory results as given in PMC11982291 (Communications Biology, 2025).
# Experiments:
# [1] = target: XRN1 (5’-3’ exoribonuclease 1) (Homo sapiens, UniProt Q8IZH2); assay: SPR; format: binding
# XRN2 = target: T1, XRN2 (Homo sapiens, UniProt Q9H0D6); assay: SPR; format: binding
# T1 sequence (Q9H0D6 1-790): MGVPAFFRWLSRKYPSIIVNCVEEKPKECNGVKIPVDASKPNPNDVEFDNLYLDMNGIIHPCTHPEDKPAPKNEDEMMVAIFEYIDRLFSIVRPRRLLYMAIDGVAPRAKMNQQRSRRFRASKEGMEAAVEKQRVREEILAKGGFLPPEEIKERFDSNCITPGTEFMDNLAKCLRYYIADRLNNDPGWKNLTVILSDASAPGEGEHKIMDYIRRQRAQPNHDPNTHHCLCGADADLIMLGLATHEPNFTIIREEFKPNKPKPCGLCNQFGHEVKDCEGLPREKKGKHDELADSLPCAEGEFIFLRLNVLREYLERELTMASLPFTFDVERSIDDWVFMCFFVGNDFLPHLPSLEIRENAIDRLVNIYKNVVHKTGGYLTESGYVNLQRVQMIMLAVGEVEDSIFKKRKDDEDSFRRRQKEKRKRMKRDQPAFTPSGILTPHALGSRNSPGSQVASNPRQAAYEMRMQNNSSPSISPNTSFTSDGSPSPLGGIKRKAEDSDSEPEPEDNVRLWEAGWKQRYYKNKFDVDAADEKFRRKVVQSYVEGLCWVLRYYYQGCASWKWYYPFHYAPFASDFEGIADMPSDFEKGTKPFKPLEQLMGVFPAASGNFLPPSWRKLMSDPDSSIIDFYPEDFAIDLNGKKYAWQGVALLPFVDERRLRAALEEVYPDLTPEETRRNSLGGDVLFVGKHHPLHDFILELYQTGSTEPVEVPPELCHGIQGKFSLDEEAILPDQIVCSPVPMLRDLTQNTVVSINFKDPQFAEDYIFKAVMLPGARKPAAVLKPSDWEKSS
# XRN1 (5’-3’ exoribonuclease 1), sequence (Q8IZH2 1-1191): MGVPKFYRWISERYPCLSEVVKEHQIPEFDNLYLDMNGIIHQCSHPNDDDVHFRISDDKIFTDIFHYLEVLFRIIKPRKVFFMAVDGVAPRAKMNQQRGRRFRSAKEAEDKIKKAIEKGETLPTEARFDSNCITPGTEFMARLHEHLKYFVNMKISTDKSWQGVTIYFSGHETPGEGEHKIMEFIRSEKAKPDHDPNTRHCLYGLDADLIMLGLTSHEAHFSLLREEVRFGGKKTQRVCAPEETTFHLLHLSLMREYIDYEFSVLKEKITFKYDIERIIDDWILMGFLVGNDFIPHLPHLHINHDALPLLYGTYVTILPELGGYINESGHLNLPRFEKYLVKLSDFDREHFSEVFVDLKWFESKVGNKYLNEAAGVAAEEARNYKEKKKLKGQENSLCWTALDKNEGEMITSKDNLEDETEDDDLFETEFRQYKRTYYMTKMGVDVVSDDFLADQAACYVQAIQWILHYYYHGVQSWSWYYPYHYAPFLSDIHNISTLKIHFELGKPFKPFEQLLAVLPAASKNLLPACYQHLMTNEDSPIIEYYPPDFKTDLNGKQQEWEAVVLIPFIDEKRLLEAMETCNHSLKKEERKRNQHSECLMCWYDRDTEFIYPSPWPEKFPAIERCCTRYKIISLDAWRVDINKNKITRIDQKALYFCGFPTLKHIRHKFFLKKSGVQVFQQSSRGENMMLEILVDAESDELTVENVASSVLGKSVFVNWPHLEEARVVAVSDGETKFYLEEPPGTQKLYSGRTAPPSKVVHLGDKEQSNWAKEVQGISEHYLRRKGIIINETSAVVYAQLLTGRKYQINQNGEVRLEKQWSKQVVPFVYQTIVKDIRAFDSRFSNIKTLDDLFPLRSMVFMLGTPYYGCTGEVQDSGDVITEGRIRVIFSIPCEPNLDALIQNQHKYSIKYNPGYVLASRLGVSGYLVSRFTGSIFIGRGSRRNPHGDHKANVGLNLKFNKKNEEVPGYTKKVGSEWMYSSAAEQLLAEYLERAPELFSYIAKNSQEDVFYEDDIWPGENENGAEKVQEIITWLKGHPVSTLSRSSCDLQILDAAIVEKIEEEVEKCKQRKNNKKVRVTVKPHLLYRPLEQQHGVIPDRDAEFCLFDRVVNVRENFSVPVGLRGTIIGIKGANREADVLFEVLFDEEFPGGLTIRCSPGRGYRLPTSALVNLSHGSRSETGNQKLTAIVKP
structure (smiles),measurement,setting,value
"Nc1ncnc2c1ncn2[C@@H]1O[C@H](COP(=O)(O)O)[C@@H](OP(=O)(O)O)[C@H]1O [pAp, adenosine-3’,5’-bisphosphate]",Kd,[1],12 ± 1 nM
same,Kd,XRN2,14 ± 4 nM
